Measured values from PMC9948168, “Vanillin-Based Indolin-2-one Derivative Bearing a Pyridyl Moiety as a Promising Anti-Breast Cancer Agent via Anti-Estrogenic Activity” (ACS Omega, 2023).
Read-outs that look alike come from different tables or passages of the source.

What was measured:
Assay type in all cases: cell-based, human
MCF-12A cells = experiment: iCELLigence real-time cell analysis; conditions: for IC50: Homo sapiens, MCF-12A
Description: (§1) Therefore, compound 6j was applied in serial doses (2, 5, 10, 20, 50, and 100 μM) to MCF-7 cells and parallel to MCF-12A cells to determine the selectivity and safety. The treatments were performed 24 h after seeding the cells on system-specific biosensor-based plates. A total of 120 h of analyses were monitored, with cell viability measurements taken every 15 min. […] In addition, the viability percentage values for each dose in these periods were calculated and are summarized in Table 3 for MCF-7 and Table 4 for MCF-12A. […] In these treatments, cells were not killed dramatically after adding the highest two doses of 6j (100 and 50 μM); instead, they entered the stationary phase.
(§2) MCF-7 (Cat. no. HTB-22) (human estrogen receptor-positive breast cancer) and MCF-12A (Cat. no. CRL-10782) (human non-tumorigenic mammary epithelial) cell lines were obtained from the American Type Culture Collection (ATCC, Rockville, Maryland, USA). MCF-7 cells were maintained in Dulbecco’s modified Eagle’s medium (DMEM) (Biological Industries, Haemek, Israel) supplemented with 10% heat-inactivated fetal bovine serum (FBS) (Biowest, Nuaillé, France), 2 mM L-glutamine (Biological Industries, Haemek, Israel), 100 U/mL penicillin and 100 μg/mL streptomycin (Gibco, Waltham, MA, USA), and 2.5 μg/mL plasmocin (Invivogen, Toulouse, France) at 37 °C in a 5% CO2 humidified incubator. MCF-12A cells were cultured in a DMEM/F-12 Nutrient Mixture (Ham) (DMEM/F12 1:1 with HEPES and L-glutamine) (Gibco, Waltham, MA, USA) with 10% heat-inactivated FBS, 100 U/mL penicillin, 100 μg/mL streptomycin, and 10 μg/mL insulin (Humulin R, Lilly, Indianapolis, USA), 20 ng/mL epidermal growth factor (Abcam, Cambridge, UK), […] hydrocortisone (Dekort, Deva Ilac, Istanbul, Turkey), and 2.5 μg/mL plasmocin in a humidified atmosphere of 5% CO2 at 37 °C. The cells were routinely cultured in cell culture flasks and checked regularly under an inverted microscope. Cells reaching 80% confluency were passaged by treatment with 0.25% trypsin–EDTA. Total cell numbers were counted by the trypan blue dye exclusion method using a hemocytometer prior to the experiments.
(§3) The iCELLigence real-time cell analysis system was used to conduct a real-time and label-free examination of the activities of compound 6j on cells as we previously described.[62] In brief, following a background measurement with 200 μL of complete medium on iCELLigence E-plate L8, 100 μL of MCF-7 or MCF-12A cells was seeded at a density of 5.0 × 10^3 per well. During the 120 h monitoring, the system took impedance measurements via biosensors every 15 min. At the 24th h of incubation, the cells were treated with increasing concentrations of the 6j compound (2, 5, 10, 20, 50, and 100 μM) in duplicate. For cell culture experiments, compound 6j was dissolved in DMSO (Sigma, St. Louis, USA) at a stock concentration of 20 mM. For treatments, dilutions were prepared from 20 mM stock with a cell growth medium, with a final DMSO concentration of 0.1%. The medium containing 0.1% DMSO was also used as a negative control. […] Data were recorded by the iCELLigence software for 120 h and analyzed at the end of the study.

MCF-7 cells = experiment: iCELLigence real-time cell analysis; conditions: for viability at 2 µM / viability at 5 µM / viability at 10 µM / viability at 20 µM / viability at 50 µM / viability at 100 µM / IC50: MCF-7; for viability at 2 µM / viability at 5 µM / viability at 10 µM / viability at 20 µM / viability at 50 µM / viability at 100 µM: relative to control, read-out: cell viability (% ± SEM)
Description: as §1, §2, §3

[1] = iCELLigence real-time cell analysis; conditions: human, MCF-12A, relative to control, read-out: cell viability (% ± SEM)
Description: as §1, §2, §3

SMILES: COc1cc(C=C2C(=O)Nc3ccc(Cl)cc32)ccc1OCc1ccccn1 (mixture of isomers) [6j]
- IC50 (MCF-12A cells; 24 h after treatment): 506 µM
- IC50 (MCF-12A cells; 48 h after treatment): 81.9 µM
- IC50 (MCF-12A cells; 72 h after treatment): 312 µM
- IC50 (MCF-12A cells; 96 h after treatment): 207 µM
- safer profile MCF-12A versus MCF-7 (MCF-12A cells; at the 48th h, based on IC50 values): 5 times
- effects on MCF-12A healthy breast cells (MCF-12A cells; first 24 h of treatment, any dose (2-100 μM)): no effects
- inhibition of MCF-7 viability (MCF-7 cells; 20 μM, compared with same concentration of tamoxifen): 30%
- growth of MCF-7 cells (MCF-7 cells; 100 and 50 μM, all time points): completely inhibited the growth
- inhibition at 10 µM (MCF-7 cells; Homo sapiens, MCF7, 10 μM, from growth curves): 25%
- inhibition at 20 µM (MCF-7 cells; Homo sapiens, MCF7, 20 μM, all time points, from growth curves): ~50%
- viability at 2 µM (MCF-7 cells; Homo sapiens, MCF7, 24 h): 91.38 ± 0.01%
- viability at 2 µM (MCF-7 cells; Homo sapiens, MCF7, 48 h): 91.38 ± 0.01%
- viability at 2 µM (MCF-7 cells; Homo sapiens, MCF7, 72 h): 91.38 ± 0.01%
- viability at 2 µM (MCF-7 cells; Homo sapiens, MCF7, 96 h): 90.67 ± 0.01%
- viability at 5 µM (MCF-7 cells; Homo sapiens, MCF7, 24 h): 84.83 ± 0.01%
- viability at 5 µM (MCF-7 cells; Homo sapiens, MCF7, 48 h): 83.01 ± 0.02%
- viability at 5 µM (MCF-7 cells; Homo sapiens, MCF7, 72 h): 83.01 ± 0.02%
- viability at 5 µM (MCF-7 cells; Homo sapiens, MCF7, 96 h): 82.54 ± 0.01%
- viability at 10 µM (MCF-7 cells; Homo sapiens, MCF7, 10 μM, 24 h): 80 ± 0.01%
- viability at 10 µM (MCF-7 cells; Homo sapiens, MCF7, 10 μM, 48 h): 76.59 ± 0.01%
- viability at 10 µM (MCF-7 cells; Homo sapiens, MCF7, 10 μM, 72 h): 76.59 ± 0.01%
- viability at 10 µM (MCF-7 cells; Homo sapiens, MCF7, 10 μM, 96 h): 74.2%
- viability at 20 µM (MCF-7 cells; Homo sapiens, MCF7, 20 μM, 24 h): 70.25 ± 0.02%
- viability at 20 µM (MCF-7 cells; Homo sapiens, MCF7, 20 μM, 48 h): 64.29 ± 0.02%
- viability at 20 µM (MCF-7 cells; Homo sapiens, MCF7, 20 μM, 72 h): 51.2 ± 0.01%
- viability at 20 µM (MCF-7 cells; Homo sapiens, MCF7, 20 μM, 96 h): 40.5%
- viability at 50 µM (MCF-7 cells; Homo sapiens, MCF7, 24 h): 62.7%
- viability at 50 µM (MCF-7 cells; Homo sapiens, MCF7, 48 h): 43.4%
- viability at 50 µM (MCF-7 cells; Homo sapiens, MCF7, 72 h): 28%
- viability at 50 µM (MCF-7 cells; Homo sapiens, MCF7, 96 h): 18.4%
- viability at 100 µM (MCF-7 cells; Homo sapiens, MCF7, 24 h): 57.46 ± 0.02%
- viability at 100 µM (MCF-7 cells; Homo sapiens, MCF7, 48 h): 33.25 ± 0.02%
- viability at 100 µM (MCF-7 cells; Homo sapiens, MCF7, 72 h): 20.25 ± 0.01%
- viability at 100 µM (MCF-7 cells; Homo sapiens, MCF7, 96 h): 13.4%
- IC50 (MCF-7 cells; Homo sapiens, MCF7, 24 h after treatment): 121 µM
- IC50 (MCF-7 cells; Homo sapiens, MCF7, 48 h after treatment): 16.2 µM
- IC50 (MCF-7 cells; Homo sapiens, MCF7, 72 h after treatment): 17 µM
- IC50 (MCF-7 cells; Homo sapiens, MCF7, 96 h after treatment): 16.1 µM
- viability at 48 h, 2 µM ([1]; MCF-12A cells (non-tumorigenic mammary epithelial), 2 μM, 48 h): 97.43 ± 0.02%
- viability at 72 h, 2 µM ([1]; MCF-12A cells (non-tumorigenic mammary epithelial), 2 μM, 72 h): 97.43 ± 0.02%
- viability at 96 h, 2 µM ([1]; MCF-12A cells (non-tumorigenic mammary epithelial), 2 μM, 96 h): 97.43 ± 0.02%
- viability at 72 h, 5 µM ([1]; MCF-12A cells (non-tumorigenic mammary epithelial), 5 μM, 72 h): 92.74 ± 0.01%
- viability at 96 h, 5 µM ([1]; MCF-12A cells (non-tumorigenic mammary epithelial), 5 μM, 96 h): 92.2%
- viability at 72 h, 10 µM ([1]; MCF-12A cells (non-tumorigenic mammary epithelial), 10 μM, 72 h): 87.93 ± 0.02%
- viability at 96 h, 10 µM ([1]; MCF-12A cells (non-tumorigenic mammary epithelial), 10 μM, 96 h): 87.93 ± 0.02%
- viability at 72 h, 20 µM ([1]; MCF-12A cells (non-tumorigenic mammary epithelial), 20 μM, 72 h): 80.57 ± 0.01%
- viability at 96 h, 20 µM ([1]; MCF-12A cells (non-tumorigenic mammary epithelial), 20 μM, 96 h): 80.57 ± 0.01%
- viability at 72 h, 50 µM ([1]; MCF-12A cells (non-tumorigenic mammary epithelial), 50 μM, 72 h): 72.7 ± 0.01%
- viability at 96 h, 50 µM ([1]; MCF-12A cells (non-tumorigenic mammary epithelial), 50 μM, 96 h): 72.54 ± 0.01%
- viability at 72 h, 100 µM ([1]; MCF-12A cells (non-tumorigenic mammary epithelial), 100 μM, 72 h): 62.63 ± 0.01%
- viability at 96 h, 100 µM ([1]; MCF-12A cells (non-tumorigenic mammary epithelial), 100 μM, 96 h): 61.3%
- viability at 24 h, 2 µM ([1]; MCF-12A cells, 2 μM, 24 h): 98.7%
- viability at 24 h, 5 µM ([1]; MCF-12A cells, 5 μM, 24 h): 99.06 ± 0.01%
- viability at 48 h, 5 µM ([1]; MCF-12A cells, 5 μM, 48 h): 93.73 ± 0.02%
- viability at 24 h, 10 µM ([1]; MCF-12A cells, 10 μM, 24 h): 97.22 ± 0.01%
- viability at 48 h, 10 µM ([1]; MCF-12A cells, 10 μM, 48 h): 88.48 ± 0.02%
- viability at 24 h, 20 µM ([1]; MCF-12A cells, 20 μM, 24 h): 93.6%
- viability at 48 h, 20 µM ([1]; MCF-12A cells, 20 μM, 48 h): 81.96 ± 0.01%
- viability at 24 h, 50 µM ([1]; MCF-12A cells, 50 μM, 24 h): 90.25 ± 0.01%
- viability at 48 h, 50 µM ([1]; MCF-12A cells, 50 μM, 48 h): 77.81 ± 0.01%
- viability at 24 h, 100 µM ([1]; MCF-12A cells, 100 μM, 24 h): 82%
- viability at 48 h, 100 µM ([1]; MCF-12A cells, 100 μM, 48 h): 67.3%
